Measurements: paper PMC12396409, “Screening and hit evaluation of a microbial metabolite library against the pathogenic Plasmodium falciparum and Toxoplasma gondii parasites” (International Journal for Parasitology: Drugs and Drug …, 2025)
Read-outs that look alike come from different tables or passages of the source. Where a SMILES comes first, the peptide text is derived from it. Bridges are numbered along the chain shown (N, C = ends). The star is where a group is joined. X2 = CCCCCCCCCCCC(O)CC(=O)*

Legend:
[1] = tested on: P. falciparum 3D7 parasites; test: P. falciparum growth inhibition assay, 1-cycle (72 h treatment), SYBR DNA staining (library screen at 2 μg/mL and dose-response); type: cell-based, Plasmodium falciparum; conditions: for activity at 2 µg/mL: Plasmodium falciparum
[2] = tested on: P. falciparum 3D7 parasites; test: P. falciparum growth inhibition assay, 2-cycle (120 h treatment), delayed-death screen and dose-response; type: cell-based, Plasmodium falciparum; conditions: for activity at 2 µg/mL: Plasmodium falciparum
[3] = tested on: T. gondii RH strain (RH-Tub-eYFP) tachyzoites; test: microbe, parasite or virus in culture; type: cell-based, Toxoplasma gondii; conditions: 72 h; for percent parasite growth at 2 µg/mL: Toxoplasma gondii
[4] = T. gondii, screen at 2 μg/mL, replicate 1, read-out: Tg_72h_%Growth_Rep1
[5] = T. gondii, screen at 2 μg/mL, replicate 2, read-out: Tg_72h_%Growth_Rep2
[6] = library screen at 2 μg/mL, 72 h, % growth, replicate 1
[7] = library screen at 2 μg/mL, 72 h, % growth, replicate 2
[8] = library screen at 2 μg/mL, 120 h, % growth, replicate 1
[9] = library screen at 2 μg/mL, 120 h, % growth, replicate 2
[10] = library screen at 2 μg/mL, % growth, replicate 1
[11] = library screen at 2 μg/mL, % growth, replicate 2

**Q.** For `COc1cc(O)c2c(c1)C=CCC(O)C(O)C(=O)C=CCC(C)OC2=O` (stereo not drawn) [BIA-L1160], which Pf_72h_%Growth_Rep1 ([1]; P. falciparum 3D7, 72 h, library screen at 2 μg/mL, % growth, replicate 1) is on record?
**A.** Its Pf_72h_%Growth_Rep1 is 82.21%.

**Q.** And the Pf_72h_%Growth_Rep2 ([1]; P. falciparum 3D7, 72 h, library screen at 2 μg/mL, % growth, replicate 2)?
**A.** The Pf_72h_%Growth_Rep2 was 92.24%.

**Q.** What about the Pf_120h_%Growth_Rep1 ([2]; P. falciparum 3D7, 120 h, library screen at 2 μg/mL, % growth, replicate 1) of the same compound?
**A.** Its Pf_120h_%Growth_Rep1 is 96.72%.

**Q.** And the Pf_120h_%Growth_Rep2 ([2]; P. falciparum 3D7, 120 h, library screen at 2 μg/mL, % growth, replicate 2)?
**A.** Its Pf_120h_%Growth_Rep2 is 110.83%.

**Q.** What about the Tg_72h_%Growth_Rep1 ([3]; T. gondii RH, library screen at 2 μg/mL, % growth, replicate 1) of the same compound?
**A.** The Tg_72h_%Growth_Rep1 was 102.73%.

**Q.** And the Tg_72h_%Growth_Rep2 ([3]; T. gondii RH, library screen at 2 μg/mL, % growth, replicate 2)?
**A.** The Tg_72h_%Growth_Rep2 was 85.36%.

**Q.** `COc1ccc2c3c([nH]c2c1)C(C)(C)C=CN1C(=O)[C@H](C)NC(=O)/C1=C/3` [Cycloechinulin] was tested. Which Pf_72h_%Growth_Rep1 ([1]; P. falciparum, 72 h, screen at 2 μg/mL, replicate 1) did it give?
**A.** The Pf_72h_%Growth_Rep1 was 63.19%.

**Q.** And the Pf_72h_%Growth_Rep2 ([1]; P. falciparum, 72 h, screen at 2 μg/mL, replicate 2)?
**A.** Its Pf_72h_%Growth_Rep2 is 64.05%.

**Q.** What about the Pf_120h_%Growth_Rep1 ([2]; P. falciparum, 120 h, screen at 2 μg/mL, replicate 1) of the same compound?
**A.** Its Pf_120h_%Growth_Rep1 is 51.02%.

**Q.** What about the Pf_120h_%Growth_Rep2 ([2]; P. falciparum, 120 h, screen at 2 μg/mL, replicate 2) of the same compound?
**A.** Its Pf_120h_%Growth_Rep2 is 53.71%.

**Q.** And the Tg_72h_%Growth_Rep1 ([3]; T. gondii, screen at 2 μg/mL, replicate 1)?
**A.** The Tg_72h_%Growth_Rep1 was 136.66%.

**Q.** What about the Tg_72h_%Growth_Rep2 ([3]; T. gondii, screen at 2 μg/mL, replicate 2) of the same compound?
**A.** Its Tg_72h_%Growth_Rep2 is 103.07%.

**Q.** What does the source list for `O=C(N[C@H](CO)[C@H](O)c1ccc([N+](=O)[O-])cc1)C(Cl)Cl` [Chloramphenicol]?
**A.** activity at 2 µg/mL ([1]; 3D7, 72 h, P. falciparum, 72 h, screen at 2 μg/mL, replicate 1, read-out: Pf_72h_%Growth_Rep1): 85.8%; activity at 2 µg/mL ([1]; 3D7, 72 h, P. falciparum, 72 h, screen at 2 μg/mL, replicate 2, read-out: Pf_72h_%Growth_Rep2): 84.9%; activity at 2 µg/mL ([2]; 3D7, 120 h, P. falciparum, 120 h, screen at 2 μg/mL, replicate 1, read-out: Pf_120h_%Growth_Rep1): 117%; activity at 2 µg/mL ([2]; 3D7, 120 h, P. falciparum, 120 h, screen at 2 μg/mL, replicate 2, read-out: Pf_120h_%Growth_Rep2): 64.9%; percent parasite growth at 2 µg/mL [3, 4]: 86.7%; percent parasite growth at 2 µg/mL [3, 5]: 85.3%

**Q.** Which results are given for `CCCC[C@@H](C)[C@@H](OC(=O)C[C@@H](CC(=O)O)C(=O)O)[C@H](C[C@@H](C)CCCCCC[C@@H](O)C[C@H](O)[C@H](C)N)OC(=O)C[C@@H](CC(=O)O)C(=O)O` [Fumonisin B2]?
**A.** Pf_72h_%Growth_Rep1 [1, 6]: 86.29%; Pf_72h_%Growth_Rep2 [1, 7]: 114.27%; Pf_120h_%Growth_Rep1 [2, 8]: 88.54%; Pf_120h_%Growth_Rep2 [2, 9]: 108.75%; Tg_72h_%Growth_Rep1 [3, 10]: 118.32%; Tg_72h_%Growth_Rep2 [3, 11]: 95.97%

**Q.** What does the source list for `CCCCCCCCCCCCCCCc1cc(O)cc(O)c1` [Adipostatin A]?
**A.** Pf_72h_%Growth_Rep1 [1, 6]: 85.82%; Pf_72h_%Growth_Rep2 [1, 7]: 88.98%; Pf_120h_%Growth_Rep1 [2, 8]: 83.04%; Pf_120h_%Growth_Rep2 [2, 9]: 100.82%; Tg_72h_%Growth_Rep1 [3, 10]: 103.30%; Tg_72h_%Growth_Rep2 [3, 11]: 96.65%

**Q.** Which Pf_72h_%Growth_Rep1 ([1]; P. falciparum 3D7, 72 h, parasite screen at 2 μg/mL, % growth, replicate 1) does the source give for `CCCCCCCCCCCC(O)CC(=O)NC(CC(C)C)C(=O)NC(CCC(=O)O)C(=O)NC1C(=O)NC(C(C)C)C(=O)NC(CC(C)C)C(=O)NC(CO)C(=O)NC(CC(C)C)C(=O)NC(CC(C)C)C(=O)NC(CO)C(=O)NC(C(C)C)C(=O)OC1C` (stereo not drawn) [BIA-O1431] (X2-LETVLSLLSV; ester 3-C; configuration not given here) here?
**A.** The Pf_72h_%Growth_Rep1 was 80.05%.

**Q.** What about the Pf_72h_%Growth_Rep2 ([1]; P. falciparum 3D7, 72 h, parasite screen at 2 μg/mL, % growth, replicate 2) of the same compound?
**A.** The Pf_72h_%Growth_Rep2 was 103.50%.

**Q.** What about the Pf_120h_%Growth_Rep1 ([2]; P. falciparum 3D7, 120 h, parasite screen at 2 μg/mL, % growth, replicate 1) of the same compound?
**A.** The Pf_120h_%Growth_Rep1 was 94.38%.

**Q.** And the Pf_120h_%Growth_Rep2 ([2]; P. falciparum 3D7, 120 h, parasite screen at 2 μg/mL, % growth, replicate 2)?
**A.** Its Pf_120h_%Growth_Rep2 is 109.58%.

**Q.** And the Tg_72h_%Growth_Rep1 ([3]; T. gondii, parasite screen at 2 μg/mL, % growth, replicate 1)?
**A.** The Tg_72h_%Growth_Rep1 was 138.54%.

**Q.** What about the Tg_72h_%Growth_Rep2 ([3]; T. gondii, parasite screen at 2 μg/mL, % growth, replicate 2) of the same compound?
**A.** The Tg_72h_%Growth_Rep2 was 91.95%.

**Q.** Which Pf_72h_%Growth_Rep1 [1, 6] does the source give for `COc1cc2c3c(c1O)-c1c(cc(O)c(OC)c1OC)CCC3N(C)CC2` (stereo not drawn) [Floramultine] here?
**A.** The Pf_72h_%Growth_Rep1 was 85.55%.

**Q.** And the Pf_72h_%Growth_Rep2 [1, 7]?
**A.** The Pf_72h_%Growth_Rep2 was 120.01%.

**Q.** And the Pf_120h_%Growth_Rep1 [2, 8]?
**A.** The Pf_120h_%Growth_Rep1 was 85.60%.

**Q.** And the Pf_120h_%Growth_Rep2 [2, 9]?
**A.** Its Pf_120h_%Growth_Rep2 is 101.00%.

**Q.** And the Tg_72h_%Growth_Rep1 [3, 10]?
**A.** The Tg_72h_%Growth_Rep1 was 115.84%.

**Q.** What about the Tg_72h_%Growth_Rep2 [3, 11] of the same compound?
**A.** Its Tg_72h_%Growth_Rep2 is 93.93%.

**Q.** With `CN(C)[C@H]1C(O)=C(C(N)=O)C(=O)[C@@]2(O)C(O)=C3C(=O)c4c(O)ccc(Cl)c4[C@@](C)(O)[C@H]3C[C@@H]12.Cl` [Epichlortetracycline hydrochloride] as the compound, how does the Pf_72h_%Growth_Rep1 [1, 6] read?
**A.** Its Pf_72h_%Growth_Rep1 is 82.03%.

**Q.** What about the Pf_72h_%Growth_Rep2 [1, 7] of the same compound?
**A.** Its Pf_72h_%Growth_Rep2 is 85.38%.

**Q.** What about the Pf_120h_%Growth_Rep1 [2, 8] of the same compound?
**A.** Its Pf_120h_%Growth_Rep1 is 77.41%.

**Q.** What about the Pf_120h_%Growth_Rep2 [2, 9] of the same compound?
**A.** Its Pf_120h_%Growth_Rep2 is 79.95%.

**Q.** And the Tg_72h_%Growth_Rep1 [3, 10]?
**A.** Its Tg_72h_%Growth_Rep1 is 92.54%.

**Q.** What about the Tg_72h_%Growth_Rep2 [3, 11] of the same compound?
**A.** Its Tg_72h_%Growth_Rep2 is 103.55%.

**Q.** Which activity at 2 µg/mL ([1]; 3D7, P. falciparum, 72 h, screen at 2 μg/mL, replicate 1, read-out: Pf_72h_%Growth_Rep1) does the source give for `O=C1N[C@@H](Cc2c[nH]c3ccccc23)C(=O)N2CCC[C@@H]12` [Brevianamide F] here?
**A.** The activity at 2 µg/mL was 103%.

**Q.** And the activity at 2 µg/mL ([1]; 3D7, P. falciparum, 72 h, screen at 2 μg/mL, replicate 2, read-out: Pf_72h_%Growth_Rep2)?
**A.** The activity at 2 µg/mL was 84.4%.

**Q.** And the activity at 2 µg/mL ([2]; 3D7, P. falciparum, 120 h, screen at 2 μg/mL, replicate 1, read-out: Pf_120h_%Growth_Rep1)?
**A.** The activity at 2 µg/mL was 148%.

**Q.** What about the activity at 2 µg/mL ([2]; 3D7, P. falciparum, 120 h, screen at 2 μg/mL, replicate 2, read-out: Pf_120h_%Growth_Rep2) of the same compound?
**A.** The activity at 2 µg/mL was 91%.

**Q.** What about the percent parasite growth at 2 µg/mL [3, 4] of the same compound?
**A.** Its percent parasite growth at 2 µg/mL is 83.3%.

**Q.** What about the percent parasite growth at 2 µg/mL [3, 5] of the same compound?
**A.** Its percent parasite growth at 2 µg/mL is 92%.
